Measured values as given in patent US10059717B2, “Urea compounds containing 3,4-dihydropyrimido[4,5-D]pyrimidin-2(1H)-one skeleton as protein kinase inhibitors” (KOREA INSTITUTE OF SCIENCE AND TECHNOLOGY, priority 2016, dated 2018).

How the values were obtained:
Test in all cases: Kinase panel biochemical assay
Conditions in all cases: 1 μM single concentration, read-out: % residual enzyme activity
ACK1 = ACK1 (Homo sapiens, UniProt Q07912)
Outline: (§1)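 Values reflect one-concentration (1 μM) biochemical testing; inhibition is derived from the percent of kinase activity that remains.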

ARAF = ARAF (Homo sapiens, UniProt P10398)
Outline: as §1

BRK = BRK (Homo sapiens, UniProt Q13882)
Outline: as §1

BTK = BTK (Homo sapiens, UniProt Q06187)
Outline: as §1

CSK = CSK (Homo sapiens, UniProt P41240)
Chain of CSK (P41240 whole entry): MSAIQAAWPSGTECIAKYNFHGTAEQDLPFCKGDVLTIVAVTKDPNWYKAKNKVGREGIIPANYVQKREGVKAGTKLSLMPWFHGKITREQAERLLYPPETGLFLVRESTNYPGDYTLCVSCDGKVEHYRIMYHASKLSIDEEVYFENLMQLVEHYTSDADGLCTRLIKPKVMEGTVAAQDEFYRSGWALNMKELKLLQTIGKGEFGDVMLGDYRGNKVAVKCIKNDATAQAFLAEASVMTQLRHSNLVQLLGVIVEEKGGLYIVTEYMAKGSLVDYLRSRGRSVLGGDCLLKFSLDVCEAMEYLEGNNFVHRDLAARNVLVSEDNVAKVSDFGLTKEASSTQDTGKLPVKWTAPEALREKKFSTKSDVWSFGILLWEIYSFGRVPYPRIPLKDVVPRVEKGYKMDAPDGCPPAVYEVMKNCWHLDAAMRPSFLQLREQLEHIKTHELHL
Outline: as §1

EPHA6 = EPHA6 (Homo sapiens, UniProt Q9UF33)
Chain of EPHA6 (Q9UF33 23-1036): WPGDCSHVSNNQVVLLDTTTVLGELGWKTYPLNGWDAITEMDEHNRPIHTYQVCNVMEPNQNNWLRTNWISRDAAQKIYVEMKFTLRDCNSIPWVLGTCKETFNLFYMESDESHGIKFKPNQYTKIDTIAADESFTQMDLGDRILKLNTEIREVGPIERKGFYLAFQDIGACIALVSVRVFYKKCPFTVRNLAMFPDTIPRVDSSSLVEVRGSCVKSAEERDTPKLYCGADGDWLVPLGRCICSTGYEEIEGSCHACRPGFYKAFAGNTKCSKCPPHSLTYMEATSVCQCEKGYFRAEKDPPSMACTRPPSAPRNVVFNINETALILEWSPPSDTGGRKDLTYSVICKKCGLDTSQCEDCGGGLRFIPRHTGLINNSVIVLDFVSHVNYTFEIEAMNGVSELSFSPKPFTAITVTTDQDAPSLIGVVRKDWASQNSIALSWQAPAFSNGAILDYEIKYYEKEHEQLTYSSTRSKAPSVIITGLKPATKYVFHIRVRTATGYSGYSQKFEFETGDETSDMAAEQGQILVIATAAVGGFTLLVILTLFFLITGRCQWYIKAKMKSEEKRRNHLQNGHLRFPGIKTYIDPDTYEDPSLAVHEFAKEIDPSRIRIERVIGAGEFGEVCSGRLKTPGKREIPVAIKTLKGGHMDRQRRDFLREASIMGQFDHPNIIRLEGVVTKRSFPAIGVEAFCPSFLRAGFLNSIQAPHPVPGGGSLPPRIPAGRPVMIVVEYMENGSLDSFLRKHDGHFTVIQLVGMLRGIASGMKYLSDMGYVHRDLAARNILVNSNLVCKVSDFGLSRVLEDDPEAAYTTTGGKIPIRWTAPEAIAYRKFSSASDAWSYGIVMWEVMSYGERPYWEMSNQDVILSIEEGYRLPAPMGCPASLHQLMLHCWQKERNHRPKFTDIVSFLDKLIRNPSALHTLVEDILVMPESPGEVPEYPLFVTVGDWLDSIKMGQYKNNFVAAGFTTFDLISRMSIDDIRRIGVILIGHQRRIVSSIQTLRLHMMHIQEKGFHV
Outline: as §1

EPHA8 = EPHA8 (Homo sapiens, UniProt P29322)
Outline: as §1

EPHB2 = EPHB2 (Homo sapiens, UniProt P29323)
Outline: as §1

EPHB3 = EPHB3 (Homo sapiens, UniProt P54753)
Outline: as §1

FGR = FGR (Homo sapiens, UniProt P09769)
Chain of FGR (P09769 whole entry): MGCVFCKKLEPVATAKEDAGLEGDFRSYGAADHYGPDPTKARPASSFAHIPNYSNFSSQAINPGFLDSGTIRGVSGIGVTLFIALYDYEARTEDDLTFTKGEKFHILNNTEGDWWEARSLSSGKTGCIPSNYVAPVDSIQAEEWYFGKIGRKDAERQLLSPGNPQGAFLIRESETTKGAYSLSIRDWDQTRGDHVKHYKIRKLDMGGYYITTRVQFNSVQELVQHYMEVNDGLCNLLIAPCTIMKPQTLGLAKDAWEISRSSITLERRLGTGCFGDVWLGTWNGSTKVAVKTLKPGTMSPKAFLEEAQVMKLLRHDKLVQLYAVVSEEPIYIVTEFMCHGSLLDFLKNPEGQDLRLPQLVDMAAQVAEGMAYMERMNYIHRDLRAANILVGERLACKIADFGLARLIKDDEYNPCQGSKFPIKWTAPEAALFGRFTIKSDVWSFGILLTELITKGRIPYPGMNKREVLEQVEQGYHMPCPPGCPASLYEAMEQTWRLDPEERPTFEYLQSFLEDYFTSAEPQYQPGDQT
Outline: as §1

FLT1NEGFR1 = FLT1NEGFR1 (Homo sapiens, UniProt P17948)
Outline: as §1

GLK/MAP4K3 = GLK/MAP4K3 (Homo sapiens, UniProt Q8IVH8)
Outline: as §1

IR = IR (Homo sapiens, UniProt P06213)
Outline: as §1

JAK2 = JAK2 (Homo sapiens, UniProt O60674)
Outline: as §1

KDRNEGFR2 = KDRNEGFR2 (Homo sapiens, UniProt P35968)
Outline: as §1

KHS/MAP4K5 = KHS/MAP4K5 (Homo sapiens, UniProt Q9Y4K4)
Chain of KHS/MAP4K5 (Q9Y4K4 whole entry): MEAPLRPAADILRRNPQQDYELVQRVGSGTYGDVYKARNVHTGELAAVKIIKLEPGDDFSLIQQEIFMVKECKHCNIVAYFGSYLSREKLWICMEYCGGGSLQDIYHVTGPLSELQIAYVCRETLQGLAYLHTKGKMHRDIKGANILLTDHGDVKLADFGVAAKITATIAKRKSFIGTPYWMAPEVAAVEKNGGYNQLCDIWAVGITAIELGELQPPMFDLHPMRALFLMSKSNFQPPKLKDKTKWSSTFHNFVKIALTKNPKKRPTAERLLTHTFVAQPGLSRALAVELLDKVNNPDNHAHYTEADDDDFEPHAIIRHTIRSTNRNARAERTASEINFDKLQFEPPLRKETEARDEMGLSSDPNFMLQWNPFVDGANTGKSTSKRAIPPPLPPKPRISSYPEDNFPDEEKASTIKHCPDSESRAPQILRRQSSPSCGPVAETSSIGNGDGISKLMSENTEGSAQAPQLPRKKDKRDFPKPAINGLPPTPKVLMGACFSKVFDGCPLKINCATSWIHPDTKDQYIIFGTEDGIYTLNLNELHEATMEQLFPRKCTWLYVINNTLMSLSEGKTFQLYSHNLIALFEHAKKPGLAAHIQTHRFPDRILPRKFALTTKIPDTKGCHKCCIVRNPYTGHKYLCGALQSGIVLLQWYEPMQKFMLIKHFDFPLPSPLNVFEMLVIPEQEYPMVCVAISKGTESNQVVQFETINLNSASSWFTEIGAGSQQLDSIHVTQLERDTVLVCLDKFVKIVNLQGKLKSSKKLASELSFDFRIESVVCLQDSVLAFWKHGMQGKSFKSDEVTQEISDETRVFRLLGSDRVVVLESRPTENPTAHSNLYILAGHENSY
Outline: as §1

LATS2 = LATS2 (Homo sapiens, UniProt Q9NRM7)
Outline: as §1

LCK = LCK (Homo sapiens, UniProt P06239)
Chain of LCK (P06239 whole entry): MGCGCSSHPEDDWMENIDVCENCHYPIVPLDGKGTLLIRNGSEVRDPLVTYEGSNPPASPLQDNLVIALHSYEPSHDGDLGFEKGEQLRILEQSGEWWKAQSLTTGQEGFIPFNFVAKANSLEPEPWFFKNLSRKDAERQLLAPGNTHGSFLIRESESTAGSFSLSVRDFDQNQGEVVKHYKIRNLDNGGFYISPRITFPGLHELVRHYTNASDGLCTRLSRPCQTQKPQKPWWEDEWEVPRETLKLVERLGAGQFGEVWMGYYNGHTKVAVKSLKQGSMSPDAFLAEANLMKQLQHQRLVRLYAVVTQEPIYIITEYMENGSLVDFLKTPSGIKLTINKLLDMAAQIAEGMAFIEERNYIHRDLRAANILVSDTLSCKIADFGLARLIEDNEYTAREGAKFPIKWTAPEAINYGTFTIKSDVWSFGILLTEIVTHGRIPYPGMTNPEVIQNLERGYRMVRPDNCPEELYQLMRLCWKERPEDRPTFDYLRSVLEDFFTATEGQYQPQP
Outline: as §1

LOK/STK10 = LOK/STK10 (Homo sapiens, UniProt O94804)
Outline: as §1

MEKK3 = MEKK3 (Homo sapiens, UniProt Q99759)
Chain of MEKK3 (Q99759 whole entry): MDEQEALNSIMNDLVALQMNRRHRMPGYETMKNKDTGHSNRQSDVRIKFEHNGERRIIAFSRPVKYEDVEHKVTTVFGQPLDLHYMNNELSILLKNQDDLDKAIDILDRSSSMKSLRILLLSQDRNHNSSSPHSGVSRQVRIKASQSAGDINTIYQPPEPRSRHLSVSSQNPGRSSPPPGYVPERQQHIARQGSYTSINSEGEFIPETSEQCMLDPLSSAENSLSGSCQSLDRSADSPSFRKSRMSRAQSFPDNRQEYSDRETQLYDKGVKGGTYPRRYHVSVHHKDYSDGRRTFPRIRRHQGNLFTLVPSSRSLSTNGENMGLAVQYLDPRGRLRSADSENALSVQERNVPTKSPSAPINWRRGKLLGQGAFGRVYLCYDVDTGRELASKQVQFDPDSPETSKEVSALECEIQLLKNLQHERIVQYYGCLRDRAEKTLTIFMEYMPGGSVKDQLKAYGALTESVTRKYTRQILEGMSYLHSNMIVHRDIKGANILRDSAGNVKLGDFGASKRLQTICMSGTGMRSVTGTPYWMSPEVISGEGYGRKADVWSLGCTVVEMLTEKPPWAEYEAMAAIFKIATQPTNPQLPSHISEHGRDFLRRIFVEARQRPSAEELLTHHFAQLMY
Outline: as §1

MLCK2/MYLK2 = MLCK2/MYLK2 (Homo sapiens, UniProt Q9H1R3)
Outline: as §1

NEK11 = NEK11 (Homo sapiens, UniProt Q8NG66)
Outline: as §1

PDGFRb = PDGFRb (Homo sapiens, UniProt P09619)
Outline: as §1

PEAK1 = PEAK1 (Homo sapiens, UniProt Q9H792)
Outline: as §1

SIK3 = SIK3 (Homo sapiens, UniProt Q9Y2K2)
Outline: as §1

TAOK1 = TAOK1 (Homo sapiens, UniProt Q7L7X3)
Chain of TAOK1 (Q7L7X3 whole entry): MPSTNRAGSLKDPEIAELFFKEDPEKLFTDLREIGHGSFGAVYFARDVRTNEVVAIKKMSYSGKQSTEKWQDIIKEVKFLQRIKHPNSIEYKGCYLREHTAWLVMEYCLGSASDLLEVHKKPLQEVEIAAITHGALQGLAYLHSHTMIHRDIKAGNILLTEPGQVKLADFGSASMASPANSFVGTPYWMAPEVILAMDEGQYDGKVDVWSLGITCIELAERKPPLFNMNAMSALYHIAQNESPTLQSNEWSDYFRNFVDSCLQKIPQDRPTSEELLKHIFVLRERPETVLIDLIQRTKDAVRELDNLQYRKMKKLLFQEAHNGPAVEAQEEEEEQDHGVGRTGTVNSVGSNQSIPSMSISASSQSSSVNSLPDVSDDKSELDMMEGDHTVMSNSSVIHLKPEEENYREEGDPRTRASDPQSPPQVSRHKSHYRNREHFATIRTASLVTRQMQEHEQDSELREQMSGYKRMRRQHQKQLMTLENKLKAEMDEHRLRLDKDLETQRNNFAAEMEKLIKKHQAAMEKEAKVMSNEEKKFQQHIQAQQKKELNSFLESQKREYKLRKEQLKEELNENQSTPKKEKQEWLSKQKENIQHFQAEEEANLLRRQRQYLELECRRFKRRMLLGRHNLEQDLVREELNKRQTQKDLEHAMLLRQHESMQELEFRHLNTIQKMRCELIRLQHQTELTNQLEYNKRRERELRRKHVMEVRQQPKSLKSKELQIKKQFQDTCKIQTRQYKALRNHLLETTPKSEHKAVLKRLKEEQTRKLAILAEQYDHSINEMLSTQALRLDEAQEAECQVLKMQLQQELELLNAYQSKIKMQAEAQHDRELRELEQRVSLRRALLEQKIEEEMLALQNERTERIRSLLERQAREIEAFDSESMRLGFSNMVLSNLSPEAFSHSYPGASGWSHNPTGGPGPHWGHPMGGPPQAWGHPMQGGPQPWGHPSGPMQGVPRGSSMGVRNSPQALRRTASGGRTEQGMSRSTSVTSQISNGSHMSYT
Outline: as §1

TAOK3/JIK = TAOK3/JIK (Homo sapiens, UniProt Q9H2K8)
Outline: as §1

TXK = TXK (Homo sapiens, UniProt P42681)
Outline: as §1

YES/YES1 = YES/YES1 (Homo sapiens, UniProt P07947)
Outline: as §1

c-Src = c-Src (Homo sapiens, UniProt P12931)
Outline: as §1

Measured: remaining activity at 1 µM

CCN1CCN(C(=O)c2ccc(Nc3ncc4c(n3)N(C)C(=O)N(c3cc(NC(=O)Nc5ccccc5OC)ccc3C)C4)cn2)CC1 [Compound No. 14, 1-(3-(7-((6-(4-ethylpiperazin-1-carbonyl)pyridin-3-yl)amino)-1-methyl-2-oxo-1,4-dihydropyrimido[4,5-d]pyrimidin-3(2H)-yl)-4-methylphenyl)-3-(2-methoxyphenyl)urea]
≤ 30%: all assays above
